Values quoted from earlier work, collected in patent US6268341A, “Expression of urokinase plasminogen activator inhibitors” (Chiron Corporation, priority 1998, dated 2001).
Where no end group is shown, it is not given here. Fuc = fucose (fucosylation)

Key:
[1] = tested on: osteosarcoma cell line, SaOS-2; conditions: Rabbani et al.
uPAR = uPAR (Homo sapiens, UniProt Q03405); conditions: Appella et al., J Biol Chem 1987
uPAR, sequence (Q03405 23-335): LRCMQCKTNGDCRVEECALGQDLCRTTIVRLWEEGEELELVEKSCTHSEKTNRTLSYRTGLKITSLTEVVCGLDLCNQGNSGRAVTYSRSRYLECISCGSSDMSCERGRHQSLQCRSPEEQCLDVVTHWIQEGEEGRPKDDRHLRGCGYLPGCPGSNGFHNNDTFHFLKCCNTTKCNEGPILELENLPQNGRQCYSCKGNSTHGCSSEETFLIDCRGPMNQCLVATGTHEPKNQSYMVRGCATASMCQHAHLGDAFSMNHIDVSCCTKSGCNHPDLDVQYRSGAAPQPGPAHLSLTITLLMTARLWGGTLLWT

Substance	mitogenic activity [1]	affinity relative to intact ATF (fold less) (uPAR)
fucosylated EGF-like domain: fucosylated EGF-like domain (uPA4-43, produced by cleavage from prouPA) (LHQVPSNCDCLNGGT(Fuc)CVSNKYFSNIHWCNCPKKFGGQHCE; cysteine pairing not given here; UniProt P00749 24-63, looked up, fragment)	mitogenic	
uPA12-32: critical receptor-binding domain alone, residues 12-32 of uPA (DCLNGGTCVSNKYFSNIHWCN; UniProt P00749 32-52, looked up, fragment)		about 100 fold
